{"source": "patent US6737076B2", "about": "“Hypoallergenic composition containing tolerogenic peptides” (Nestec S.A., priority 1999, dated 2004)", "key": {"anti-β-LG IgE": {"tested_on": "anti-β-LG IgE", "assay": "Seric anti-β-LG IgE by ELISA after oral tolerance induction and immunization", "format": "in vivo, mice", "conditions": "synthetic peptides, 20 mcg/g of body weight; control 3.39", "protocol": "(§1) Female Balb/c mice were obtained from IFFA-Crédo (L'Abresle, France). They were all bred and raised on a milk free diet. The mice were 3 weeks old at the start of the experiments.\n(§2) Gavages were orally administered to the mice at age 22 days, by gastric feeding of native β-LG (5 mg/g of body weight), various amounts of TTH β-LG, or various amounts of the different β-LG peptidic fractions. Control mice were fed saline water. 5 days later, all mice were immunized β-LG and OVA (Ovalbumin, grade V, Sigma), as a non-related antigen for testing the specificity of the immune response, 21 days after systemic challenge, a Delayed Type Hypersensitivity (DTH) evaluation was done by duplicate thickness measures of the left, rear footpad prior to, and following, immunization with β-LG.\n(§3) 24 hours after DTH immunization, individual increases in foot pad thickness of those injected the day before were measured. […] Specific IgE against β-LG and against OVA were determined both in seric and intestinal samples.\nSerum and intestinal fluid dilutions were assayed in duplicate for anti-β-LG and anti-OVA IgE antibodies by ELISA. […] Titers were determined by calculating the dilution of the sample that gave twice the absorbance of the negative control. Titers were expressed as the log10 of the reciprocal of the dilution. […]"}, "Spleen cell": {"tested_on": "Spleen cell", "assay": "Splenocyte specific proliferation assay with β-LG ((3H)Tdr incorporation) from fed mice", "format": "in vivo", "conditions": "20 mcg/g of body weight; for cellular tolerance (specific inhibition of lymphocyte proliferation), in words: oral administration of synthetic peptides; for Stimulation index (rate): synthetic peptides", "text": "FIG. 1 represents specific oral tolerance induction in mice fed once with either TTH β-LG, F2 or F(7+9). A: Humoral (dark bars) and mucosal (gray bars) anti-β-LG IgE response. B: β-LG-specific DTH response (●) are individual foot pad increments and (−) are means from 10 mice per group. C and D: Specific (β-LG) and non specific (PHA) proliferative responses of splenic cells. Splenic lymphocytes from mice fed with either saline (♦), TTH β-LG (▪), F2 (▴), or F (7+9) (●) were isolated and subsequently stimulated with decreasing concentrations of antigens. ^3H thymidine incorporation was measured after 120 hours of culture. (^3H)Tdr incorporation results were expressed in cpm, as a mean of triplicate cultures, the blank-subtracted mean was then plotted respectively against β-LG or PHA concentration.\n24 hours after DTH immunization, individual increases in foot pad thickness of those injected the day before were measured. Differences between these two measurements were expressed in <thickness (millimeters) and used in group comparisons. Then, from all mice, blood samples were obtained, spleens were taken and pooled according to group of treatment. Splenocyte specific proliferation assays were performed for each group. Intestinal contents were individually collected. Serum and intestinal samples were rapidly frozen at −80° C., until assays. Specific IgE against β-LG and against OVA were determined both in seric and intestinal samples.\n(§4) Spleen cell solutions were homogenized and purified. Cells were cocultured in the presence of β-LG or of phytohaemagglutinin A. (^3H)Tdr (Amersham, Zurich) was added in the final 6 hours of culture and the plates were harvested and analyzed by scintillation counting. Stimulation indices were calculated as the ratio of blank-subtracted test and control values expressed as the mean cpm (^3H)Tdr incorporation by triplicate cultures.\n(§5) The tolerogenic peptides T6 and T17 contained in tolerogenic fraction F2 were synthetically prepared. T13 contained in a non tolerogenic fraction was also synthesized as a negative control. Oral tolerance induction of these peptides were tested in […] mice as described in example 1c) except that the dose is of 20 mcg/g of body weight."}, "β-LG epitopes": {"tested_on": "β-LG epitopes", "assay": "ELISA inhibition, β-LG IgG binding capacity (residual β-LG epitopes, antigenicity)", "protocol": "An ELISA inhibition was used to determine β-LG epitopes in β-LG hydrolysate and in β-LG fractions. β-lactoglobulin titers were calculated from a 5-fold dilution β-LG standard curve run on each plate."}, "Balb/c mice": {"tested_on": "Balb/c mice", "assay": "Oral tolerance induction mouse model, overall tolerogenic properties", "format": "in vivo", "conditions": "oral administration of synthetic peptides, 20 mcg/g of body weight", "protocol": "as §1, §2, §3\nQualitative responses of the tolerogenic properties generated from feeding the different fraction groups at two different concentrations (0.5 or 0.125 mg/g of body weight) were evaluated. Induction or absence of induction of tolerogenic responses to β-LG has been determined by the statistical significance of the immune response. […]"}, "GLM": {"tested_on": "GLM", "assay": "Lymphocyte proliferation stimulation index (GLM) after oral peptide feeding", "format": "in vivo, mice", "conditions": "synthetic peptides, 20 mcg/g of body weight", "protocol": "as §4, §5"}}, "data": [{"substance": "H2N-I-D-A-L-N-E-N-K-COOH (H-IDALNENK-OH) [T6]", "values": [{"measurement": "tolerized anti-LG IgE/ control (tolerized value)", "setting": "anti-β-LG IgE", "result": "3.24/3.39"}, {"measurement": "cellular tolerance (specific inhibition of lymphocyte proliferation), in words", "setting": "Spleen cell", "result": "induces a cellular tolerance"}, {"measurement": "Stimulation index (rate)", "setting": "Spleen cell", "result": 0.53}, {"measurement": "antigenicity (in words)", "setting": "β-LG epitopes", "result": "very low antigenicity"}, {"measurement": "tolerance induction / tolerogenic potential (in words)", "setting": "Balb/c mice", "result": "high tolerogenic potential"}, {"measurement": "Stimulation index (GLM)", "setting": "GLM", "result": 0.285}]}, {"substance": "H2N-V-L-V-L-D-T-D-Y-K,-K-COOH [T17]", "values": [{"measurement": "tolerized anti-LG IgE/ control (tolerized value)", "setting": "anti-β-LG IgE", "result": "2.67/3.39"}, {"measurement": "cellular tolerance (specific inhibition of lymphocyte proliferation), in words", "setting": "Spleen cell", "result": "induces a cellular tolerance"}, {"measurement": "Stimulation index (rate)", "setting": "Spleen cell", "result": 0.305}, {"measurement": "antigenicity (in words)", "setting": "β-LG epitopes", "result": "very low antigenicity"}, {"measurement": "tolerance induction / tolerogenic potential (in words)", "setting": "Balb/c mice", "result": "high tolerogenic potential"}, {"measurement": "Stimulation index (GLM)", "setting": "GLM", "result": 0.405}]}]}
